Results on five compounds are retold here after patent publication US11998610B2, “Conjugates and methods of using the same” (Flagship Pioneering Innovations V, Inc., priority 2018, dated 2024).

Series [1] in a line: Stability of conjugates in Simulated Gastric Fluid (SGF). Type of series: in vitro ADME. The following applies: simulated gastric fluid pH 1.6 with pepsin, 1 μM, 37° C. As to the method:
Assay 1. Stability of conjugates in Simulated Gastric Fluid (SGF). This assay was used to assess the stability of a conjugate in a stomach. Medium was prepared by dissolving 2 g of sodium chloride in 0.6 L in ultrapure water (MilliQ®, Millipore Sigma, Darmstadt, Germany). The pH was adjusted to 1.6 with 1N hydrochloric acid, and the volume was then adjusted to 1 L with purified water. 60 mg FaSSIF powder (Biorelevant™, London, UK) were dissolved in 500 mL buffer (above). Pepsin was added (0.1 mg/mL) (Millipore Sigma, Darmstadt, Germany), and the solution was stirred. The resulting SGF media were used fresh for each experiment. Test compounds were dissolved in DMSO stock to 1 mM. An aliquot of the DMSO stock solution was removed and diluted in the SGF Media in 15 mL falcon tubes to generate a total compound concentration of 1 μM. A 1 mL aliquot was immediately removed and diluted once with 1 volume of acetonitrile for T0 timepoint. The mixture was sealed and mixed at 37° C. in an incubator. Aliquots (1 mL) were removed at regular intervals and immediately quenched by the addition of 1 volume of acetonitrile. The resulting samples were analyzed by LC/MS to determine degradation rates in SGF.

The nature of series [2]: In vitro Colonic Material Stability Assay. Type of series: in vitro ADME. To be noted: colonic material slurry, anaerobic, 1 or 10 μM, 24 h. As to the method: Assay 3 In vitro Colonic Material Stability Assay. This assay was used to assess the stability of an acylated active agent in a large intestine. All experiments were performed in an anaerobic chamber containing 90% nitrogen, 5% hydrogen and 5% carbon dioxide. Colonic material was resuspended as a slurry (15% w/v final concentration) in pre-reduced, anaerobically sterilized dilution blanks (Anaerobe Systems AS-908). The colonic material was then inoculated into 96 well plates containing YCFAC media (Anaerobe Systems AS-680) or other suitable media (6.7 μL slurry into 1 mL total media). Compounds or groups of compounds were added to each individual well to reach a final analyte concentration of 1 or 10 μM, and the material was mixed by pipetting. Sample was removed after set timepoints (0, 120, 240, 480, 1440, 2880 minutes after initiation of the assay), quenched with acetonitrile containing internal standard, and analyzed by LC/MS.

Series [3] in a line: Stability of conjugates in Simulated Intestinal Fluid (SIF). The following applies: simulated intestinal fluid pH 6.7 with pancreatin, 1 μM, 37° C. It is filed as in vitro ADME. How it is done:
Assay 2. Stability of conjugates in Simulated Intestinal Fluid (SIF). This assay was used to assess the stability of a conjugate in a small intestine. Phosphate buffer was prepared by dissolving 0.42 g of sodium hydroxide pellets and 3.95 g of monobasic sodium phosphate monohydrate and 6.19 g of sodium chloride in ultrapure water (MilliQ®, Millipore Sigma, Darmstadt, Germany). The pH was adjusted to 6.7 using aq. HCl and aq. NaOH, as necessary, and the solution was diluted with ultrapure water to produce 1 L of the pH 6.7 buffer. 112 mg FaSSIF powder (Biorelevant™, London, UK) was dissolved in 50 mL of the pH 6.7 buffer. 2 to 3 mL of the resulting solution were then added to 500 mg pancreatin (Millipore Sigma, Darmstadt, Germany). The resulting mixture was agitated by finger tapping the vessel containing the mixture until milky suspension formed. At this time, the remainder of the 50 mL FaSSiF/pH 6.7 buffer solution was added. The resulting suspension was flipped upside down 10 times to produce SIF, which was used fresh. Test compounds were dissolved in DMSO stock to 1 mM. An aliquot of the DMSO stock solution was removed and diluted in the SIF media in 15 mL falcon tubes to produce a mixture with a tested compound concentration of 1 μM. A 1 mL aliquot was immediately removed and diluted once with 1 volume of acetonitrile for T0 timepoint. The mixture was sealed and agitated at 37° C. in an incubator. Aliquots (1 mL) were removed at regular intervals and immediately quenched by the addition of 1 volume of acetonitrile. The resulting samples were analyzed by LC/MS to determine degradation rates

Series [4] concerns E. coli CFT073 ATCC 700928 and/or E. coli Nissle 1917. The series can be described thus: Cell-based assay with ClbP with LCMS, ClbP positive strain. To be noted: ClbP-encoding E. coli, 10 μM compound, 37° C., 20 h. As to the method: (§1) This example is representative of the methods described in Example 97. ClbP was tested for its ability to activate compounds. […] Each of these three strains was struck out onto an appropriate solid media such as LB agar or BHI agar. The bacteria were then grown aerobically overnight at 37° C.
(§2) A single colony was isolated from the plate and inoculated into 10 mL LB. The liquid cultures were grown overnight aerobically at 37° C. with rocking on a nutator.
(§3) The saturated E. coli cultures were transferred into a biosafety cabinet. 5 μL of each culture was inoculated into fresh LB broth (200 μL total, 1:40 (v/v) dilution of the overnight culture), and the tested compound was added to a final concentration of 10 μM. To establish the native stability of the compound in media alone, the compound was also added to uninoculated media at a final concentration of 10 μM. Each compound was tested in duplicate with each strain or the media-alone incubation. The plate was sealed and incubated aerobically on a nutator at 37° C. for 20 h.
(§4) After 20 h, the reactions were stopped by addition of 200 μL acetonitrile. The contents of each well were mixed, and then the plate was centrifuged (4,000 rpm, 10 min). The plate was diluted serially to a final dilution of 1:100 first with Acetonitrile (10× dilution) and then with (4:1) Mobile Phase A-20 mM ammonium formate+water:Mobile Phase B-Isopropanol:Methanol:Water (4:4:2)+20 mM ammonium formate (10× dilution).
(§5) The amount of each remaining parent compound in each incubation was quantified by LC-MS analysis, with multiple-reaction monitoring targeting transitions specific to each parent compound.
(§6) The amount of compound present in the media-alone condition was normalized to 100%. The amount of parent compound present in the reaction with the ClbP-encoding E. coli (E. coli CFT073 ATCC 700928 and/or E. coli Nissle 1917) was compared to the amount present in the media-alone and expressed as a percent. Likewise, the amount of parent compound present in the reaction with the negative control E. coli BL21(DE3) was compared to the amount present in the media-alone and expressed as a percent.
(§7) In an ideal case, the amount of residual starting material in the reaction(s) with ClbP-encoding E. coli was <25% of the amount in the E. coli BL21(DE3) and media-alone conditions. In an acceptable case, the amount of residual starting material in the reaction(s) with ClbP-encoding E. coli was 25-75% of the amount in the E. coli BL21(DE3) and media-alone conditions. In a non-preferred case, the amount of residual starting material in the reaction(s) with ClbP-encoding E. coli was >75% of the amount in the E. coli BL21(DE3) and media-alone conditions.

In series [5] the test system is E. coli BL21(DE3). The experiment in a line: Cell-based assay with ClbP with LCMS, ClbP negative strain. The following applies: 10 μM compound, 37° C., 20 h. As to the method:
as §1, §2, §3, §4, §5, §6, §7

Non-standard residues stand in square brackets, D forms with d. Residues, ends and D or L forms follow the SMILES beside them. *: point of attachment. Myristoyl = CCCCCCCCCCCCCC(=O)*; PhAc = O=C(Cc1ccccc1)*

As to `CCCCCCCCCCCCCC(=O)N[C@H](CC(N)=O)C(=O)N[C@H](C(=O)OC)C(C)C` [Example 3, Methyl tetradecanoyl-D-asparaginyl-L-valinate] (Myristoyl-[dN]-Val-OMe), the “Assay 1 (SGF) (% Remaining @ 1 hours)” value in series [1] was “C (>75% of the tested compound remaining)”. Besides, the “Assay 3 (% Remaining at 24 h)” value in series [2] is recorded as “B (25-75% of the tested compound remaining)”. Besides, in series [3], the “Assay 2 (SIF) (% @ Remaining 4 hours)” value is listed as “C (>75% of the tested compound remaining)”. Also, in series [4], the “% Remaining in ClbP Positve Relative to Media-Only” value is recorded as “+ (between 25-75% compound remaining in the 20 μM WT ClbP reaction relative to the no-enzyme control)”. In addition, the “% Remaining in ClbP Negative Relative to Media-Only” value in series [5] is given as “+ (between 25-75% compound remaining in the 20 μM WT ClbP reaction relative to the no-enzyme control)”.

As for `COC(=O)[C@H](C)NC(=O)[C@@H](CC(N)=O)NC(=O)Cc1ccccc1` [Example 14, Methyl (2-phenylacetyl)-D-asparaginyl-L-alaninate] (PhAc-[dN]-Ala-OMe), the “Assay 1 (SGF) (% Remaining @ 1 hours)” value in series [1] is given as “C (>75% of the tested compound remaining)”. The “Assay 3 (% Remaining at 24 h)” value in series [2] was “C (>75% of the tested compound remaining)”. In series [3], the “Assay 2 (SIF) (% @ Remaining 4 hours)” value is recorded as “A (<25% of the tested compound remaining)”. The “% Remaining in ClbP Positve Relative to Media-Only” value in series [4] was “+ (between 25-75% compound remaining in the 20 μM WT ClbP reaction relative to the no-enzyme control)”. For the same compound, in series [5], the “% Remaining in ClbP Negative Relative to Media-Only” value is listed as “− (>75% compound remaining in the 20 μM WT ClbP reaction relative to the no-enzyme control)”.

As to `COC(=O)[C@H](C)NC(=O)[C@@H](CC(N)=O)NC(=O)c1ccccc1O` [Example 16, Methyl (2-hydroxybenzoyl)-D-asparaginyl-L-alaninate], the “Assay 1 (SGF) (% Remaining @ 1 hours)” value in series [1] was “C (>75% of the tested compound remaining)”. In series [2], the “Assay 3 (% Remaining at 24 h)” value is recorded as “B (25-75% of the tested compound remaining)”. Further, in series [3], the “Assay 2 (SIF) (% @ Remaining 4 hours)” value was “A (<25% of the tested compound remaining)”. The “% Remaining in ClbP Positve Relative to Media-Only” value in series [4] was “+ (between 25-75% compound remaining in the 20 μM WT ClbP reaction relative to the no-enzyme control)”. Also, the “% Remaining in ClbP Negative Relative to Media-Only” value in series [5] is reported as “+ (between 25-75% compound remaining in the 20 μM WT ClbP reaction relative to the no-enzyme control)”.

For the compound `COC(=O)[C@H](C)NC(=O)[C@@H](CC(N)=O)NC(=O)C(C)c1ccc(CC(C)C)cc1` (stereo partly drawn) [Example 17, Methyl (2-(4-isobutylphenyl)propanoyl)-D-asparaginyl-L-alaninate], the “Assay 1 (SGF) (% Remaining @ 1 hours)” value in series [1] is “C (>75% of the tested compound remaining)”. Further, the “Assay 3 (% Remaining at 24 h)” value in series [2] is “C (>75% of the tested compound remaining)”. In series [3], the “Assay 2 (SIF) (% @ Remaining 4 hours)” value is reported as “A (<25% of the tested compound remaining)”. Also, the “% Remaining in ClbP Positve Relative to Media-Only” value in series [4] is “+ (between 25-75% compound remaining in the 20 μM WT ClbP reaction relative to the no-enzyme control)”. Further, in series [5], the “% Remaining in ClbP Negative Relative to Media-Only” value is “+ (between 25-75% compound remaining in the 20 μM WT ClbP reaction relative to the no-enzyme control)”.

Regarding `CCCCCCCC(=O)N[C@H](CC(N)=O)C(=O)NCCNC(=O)Oc1ccc2c(C)cc(=O)oc2c1` [Example 69, 4-methyl-2-oxo-2H-chromen-7-yl (R)-(2-(4-amino-2-octanamido-4-oxobutanamido)ethyl)carbamate], the “Assay 1 (SGF) (% Remaining @ 1 hours)” value in series [1] was “C (>75% of the tested compound remaining)”. The “Assay 3 (% Remaining at 24 h)” value in series [2] is listed as “A (<25% of the tested compound remaining)”. For the same compound, the “Assay 2 (SIF) (% @ Remaining 4 hours)” value in series [3] is recorded as “A (<25% of the tested compound remaining)”.
